Entries after “also recorded” stand apart in the source; their conditions may differ. Marks after values point to notes of the source that are not given here.
How the values were obtained:
[1] = test system: (S)-selective ω-transaminase derived from O. anthropi; test: Substrate specificity of ω-transaminase toward 11 racemic amines (initial rate, relative reactivity); type: biochemical, Ochrobactrum anthropi; details: for Relative reactivity (%): PLP 0.1 mM, 10 min, activity toward α-methylbenzylamine defined as 100%; for Activity toward (S)-1-aminoindane relative to (S)-α-methylbenzylamine: (S)-enantiomer compared with (S)-α-methylbenzylamine, value in parentheses in Table 13
Description: An investigation was made as to the substrate specificities of the (S)-selective ω-transaminase derived from O. anthropi, which was purified in Example 7, toward 11 amines: α-methylbenzylamine 1a, 4-fluoro-α-methylbenzylamine 1b, α-ethylbenzylamine 1c, 1-methyl-3-phenylpropylamine 1d, 1-aminoindane 1e, sec-butylamine 1f, cyclopropylethylamine 1g, 2-aminopentane 1h, 2-aminooctane 1i, 1-methoxy-2-propylamine 1j, and alaninol 1k. 0.125 U/ml of the (S)-selective transaminase derived from O. anthropi was added to each racemic amine (10 mM), pyruvate (10 mM), PLP (0.1 mM), and phosphate buffer (50 mM, pH 7.5) at 37° C. After the mixture was allowed to react for 10 min, the amount of L-alanine produced was measured via GITC derivatization. All activities were measured in the initial reaction rate range of ≦5% conversion. The initial reaction rate for α-methylbenzylamine was measured to be 0.033 mM/min. When the activity of the ω-transaminase toward α-methylbenzylamine was defined as 100%, the activities of the ω-transaminase toward 4-fluoro-α-methylbenzylamine 1b, α-ethylbenzylamine 1c, 1-methyl-3-phenylpropylamine 1d, and 1-aminoindane 1e as arylalkylamines were 91%, 18%, 70%, and 64%, respectively. The activity of the ω-transaminase toward (S)-1-aminoindane was 153% of that toward (S)-α-methylbenzylamine. The activities of the ω-transaminase toward sec-butylamine 1f, cyclopropylethylamine 1g, 2-aminopentane 1h, 2-aminooctane 1i, 1-methoxy-2-propylamine 1j, and alaninol 1k as alkylamines were 54%, 63%, 29%, 146%, 60%, and 63%, respectively.

[2] = test system: (S)-selective ω-transaminase derived from P. denitrificans; test: Substrate specificity of (S)-selective ω-transaminase toward amines (L-alanine from pyruvate); type: biochemical, Paracoccus denitrificans; details: amine 20 mM (40 mM racemic sec-butylamine), pyruvate as acceptor, 50 mM potassium phosphate pH 7, 37° C., 10 min
Description: (§1) The substrate specificity of the (S)-selective ω-transaminase was confirmed in each amine (20 mM), (S)-amine (20 mM, in 40 mM racemic sec-butylamine) and potassium phosphate (50 mM, pH 7). After the reactions were carried out at 37° C. for 10 min, the amounts of L-alanine produced were measured.

[3] = test system: (S)-selective ω-transaminase derived from O. anthropi; type: biochemical, Ochrobactrum anthropi; details: for Activity of (S)-selective ω-transaminase toward amine (in words): Table 10, speaks of the (S)-selective ω-transaminase without naming O. anthropi or P. denitrificans; for L-alanine (mM) O. anthropi: amine 20 mM (40 mM racemic sec-butylamine), pyruvate as acceptor, 50 mM potassium phosphate pH 7, 37° C., 10 min
Description: as §1

[4] = test system: (S)-selective ω-transaminase derived from P. denitrificans; test: Substrate specificity of (S)-selective ω-transaminase toward keto acids; type: biochemical, Paracoccus denitrificans; details: for Acetophenone (mM) P. denitrificans: keto acid 20 mM, (S)-α-methylbenzylamine 20 mM, 50 mM potassium phosphate pH 7, 37° C., 10 min
Description: (§2) The substrate specificity of the (S)-selective ω-transaminase was confirmed in each keto acid (20 mM), (S)-α-methylbenzylamine (20 mM) and potassium phosphate (50 mM, pH 7). After the reactions were carried out at 37° C. for 10 min, the amounts of acetophenone produced were measured.

[5] = test system: D-amino acid transaminase; test: Substrate specificity of purified D-amino acid transaminase toward keto acids (amino acceptors); type: biochemical, Bacillus sphaericus; details: for Pyruvate (mM) generated: D-alanine 20 mM as amino donor; for Activity of D-amino acid transaminase toward amino acceptor (in words): Tables 7 and 8
Description: Each of amino acceptors shown in Tables 7 and 8 and D-alanine or D-homoalanine as substrates were allowed to react with the D-amino acid transaminase purified in Example 7. Specifically, each amino acceptor (20 mM), D-alanine or D-homoalanine (20 mM), and potassium phosphate (50 mM, pH 7) were allowed to react with 0.1 U/ml of the D-amino acid transaminase at 37° C. for 10 min, and the amount of a keto acid (pyruvate or 2-oxobutyrate) generated was measured.

[6] = test system: (S)-selective ω-transaminase derived from O. anthropi; test: Substrate specificity of (S)-selective ω-transaminase toward keto acids; type: biochemical, Ochrobactrum anthropi; details: for Acetophenone (mM) O. anthropi: keto acid 20 mM, (S)-α-methylbenzylamine 20 mM, 50 mM potassium phosphate pH 7, 37° C., 10 min; for Activity of (S)-selective ω-transaminase toward keto acid (in words): Table 9, speaks of the (S)-selective ω-transaminase without naming O. anthropi or P. denitrificans
Description: as §2

[7] = racemic amine 10 mM, pyruvate 10 mM, 0.125 U/ml enzyme, pH 7.5, 37° C.
[8] = amino acceptor 20 mM, 0.1 U/ml enzyme, 50 mM potassium phosphate pH 7, 37° C., 10 min

Row | Structure (SMILES) | Relative reactivity (%) [1, 7] | Acetophenone (mM) P. denitrificans [4] | Pyruvate (mM) generated [5, 8] | Acetophenone (mM) O. anthropi [6] | Activity of D-amino acid transaminase toward amino acceptor (in words) [5] | further results
1 | CC(N)c1ccccc1 (racemic) [Substrate 1a, α-methylbenzylamine] | 100^c % | – | – | – | – | Initial reaction rate ([1]; racemic amine 10 mM, pyruvate 10 mM, 0.125 U/ml enzyme, pH 7.5, 37° C., ≦5% conversion): 0.033 mM/min
2 | CC(N)c1ccc(F)cc1 (racemic) [Substrate 1b, 4-fluoro-α-methylbenzylamine] | 91% | – | – | – | – | –
3 | CCC(N)c1ccccc1 (racemic) [Substrate 1c, α-ethylbenzylamine] | 18% | – | – | – | – | –
4 | CC(N)CCc1ccccc1 (racemic) [Substrate 1d, 1-methyl-3-phenylpropylamine] | 70% | – | – | – | – | –
5 | NC1CCc2ccccc21 (racemic) [Substrate 1e, 1-aminoindane] | 64% | – | – | – | – | Activity toward (S)-1-aminoindane relative to (S)-α-methylbenzylamine [1]: 153%
6 | CCC(C)N (racemic) [Substrate 1f, sec-butylamine] | 54% | – | – | – | – | L-alanine (mM) P. denitrificans [2]: 0.000 ± 0.000 mM; Activity of (S)-selective ω-transaminase toward amine (in words) [3]: have activity; L-alanine (mM) O. anthropi [3]: 0.164 ± 0.019 mM
7 | CCCC(C)N (racemic) [Substrate 1h, 2-aminopentane] | 29% | – | – | – | – | –
8 | CCCCCCC(C)N (racemic) [Substrate 1i, 2-aminooctane] | 146% | – | – | – | – | –
9 | COCC(C)N (racemic) [Substrate 1j, 1-methoxy-2-propylamine] | 60% | – | – | – | – | –
10 | O=C(O)C(=O)C12CC3CC(CC(O)(C3)C1)C2 [2-(3-Hydroxy-1-adamantyl)-oxoethanoate] | – | -0.004 mM | 0.000 mM | -0.002 mM | – | –
11 | CCCCC(=O)C(=O)O [2-Ketohexanoate] | – | 0.713 mM | 0.531 mM | 0.006 mM | have activity | Activity of (S)-selective ω-transaminase toward keto acid (in words) [6]: have activity
12 | CCC(=O)C(=O)O [2-Oxobutyrate] | – | 0.821 mM | 1.375 mM | 0.173 mM | have activity | Activity of (S)-selective ω-transaminase toward keto acid (in words) [6]: have activity
13 | CCCC(=O)C(=O)O [2-Oxopentanoate] | – | 1.032 mM | 0.882 mM | 0.078 mM | have activity | 2-Oxobutyrate (mM) generated ([5]; amino acceptor 20 mM, D-homoalanine 20 mM as amino donor, 0.1 U/ml enzyme, 50 mM potassium phosphate pH 7, 37° C., 10 min): 0.651 mM; Activity of (S)-selective ω-transaminase toward keto acid (in words) [6]: have activity
14 | CC(C)C(=O)C(=O)O [3-Methyl-2-oxobutyrate] | – | -0.002 mM | 0.014 mM | -0.001 mM | have activity | –
15 | CCC(C)C(=O)C(=O)O (centres unmarked) [3-Methyl-2-oxopentanoate] | – | -0.004 mM | – | 0.001 mM | – | –
16 | CC(C)CC(=O)C(=O)O [4-Methyl-2-oxopentanoate] | – | 0.175 mM | 0.073 mM | 0.005 mM | have activity | Activity of (S)-selective ω-transaminase toward keto acid (in words) ([4]; Table 9, marked (P. denitrificans)): have activity
17 | N[C@H]1CCc2ccccc21 [(S)-1-aminoindane] | – | – | – | – | – | Activity toward (S)-1-aminoindane relative to (S)-α-methylbenzylamine [1]: 153%
18 | C[C@H](N)c1ccccc1 [(S)-α-methylbenzylamine] | – | – | – | – | – | L-alanine (mM) P. denitrificans [2]: 0.451 ± 0.077 mM; Activity of (S)-selective ω-transaminase toward amine (in words) [3]: have activity; L-alanine (mM) O. anthropi [3]: 0.715 ± 0.082 mM
19 | O=C(O)C(=O)CF [Fluoropyruvate] | – | 0.339 mM | 0.053 mM | 0.554 mM | have activity | Activity of (S)-selective ω-transaminase toward keto acid (in words) [6]: have activity
20 | O=CC(=O)O [Glyoxylate] | – | 1.076 mM | – | 1.733 mM | – | Activity of (S)-selective ω-transaminase toward keto acid (in words) [6]: have activity
21 | CC(C)N [Isopropylamine] | – | – | – | – | – | L-alanine (mM) P. denitrificans [2]: 0.033 ± 0.002 mM; Activity of (S)-selective ω-transaminase toward amine (in words) [3]: have activity; L-alanine (mM) O. anthropi [3]: 0.309 ± 0.050 mM
22 | O=C(O)C(=O)CS [Mercaptopyruvate] | – | 0.008 mM | 0.022 mM | 0.012 mM | have activity | –
23 | O=CC(=O)Oc1ccccc1 [Phenyl glyoxylate] | – | -0.008 mM | 0.000 mM | -0.005 mM | – | –
24 | CC(N)CO (centres unmarked) [Substrate 1k, alaninol] | 63% | – | – | – | – | –
25 | CC(C)(C)C(=O)C(=O)O [Trimethylpyruvate] | – | -0.004 mM | 0.000 mM | -0.002 mM | – | –
26 | O=C(O)CCC(=O)C(=O)O [α-Ketoglutarate] | – | -0.003 mM | 0.971 mM | -0.001 mM | have activity; also recorded: had activity | Activity of (S)-selective ω-transaminase toward keto acid (in words) [6]: no activity
27 | O=C(O)C(=O)CO [β-Hydroxypyruvate] | – | 0.066 mM | 0.079 mM | 0.183 mM | have activity | Activity of (S)-selective ω-transaminase toward keto acid (in words) [6]: have activity

— patent US9777301B2, “Method for producing optically active amine compounds by deracemization” (INDUSTRY-ACADEMIC COOPERATION FOUNDATION, YONSEI UNIVERSITY, priority 2012, dated 2017)
